According to PubChem BioAssay AID1963826 (Molecular Pharmacology Branch, DTP, NCI, 2024):

Test system: 926638-142-R-J1-PDC complex spheroid viability
Assay: Anticancer human tumor 926638-142-R-J1-PDC patient-derived endometrial carcinoma cell line growth inhibition [POLQ]
Details: for IC50: curve of first compound; for viability, T/C: stronger effect = lower value
Method in brief: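 PDC + HUVEC + MSC complex spheroids; POLQ inhibitors ± partner drugs; top conc. at/near clinical Cmax, else 10 microM (SN-38 1 microM), half-log dilutions; 37 degrees C, 5% CO2.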

[1] = second compound 0.0316 µM, first compound 0.0316 µM
[2] = second compound 0.0316 µM, first compound 0.1 µM
[3] = second compound 0.0316 µM, first compound 0.316 µM
[4] = second compound 0.0316 µM, first compound 1 µM
[5] = second compound 0.0316 µM, first compound 3.16 µM
[6] = second compound 0.0316 µM, first compound 10 µM
[7] = second compound 0.1 µM, first compound 0.0316 µM
[8] = second compound 0.1 µM, first compound 0.1 µM
[9] = second compound 0.1 µM, first compound 0.316 µM
[10] = second compound 0.1 µM, first compound 1 µM
[11] = second compound 0.1 µM, first compound 3.16 µM
[12] = second compound 0.1 µM, first compound 10 µM
[13] = second compound 0.316 µM, first compound 0.0316 µM
[14] = second compound 0.316 µM, first compound 0.1 µM
[15] = second compound 0.316 µM, first compound 0.316 µM
[16] = second compound 0.316 µM, first compound 1 µM
[17] = second compound 0.316 µM, first compound 3.16 µM
[18] = second compound 0.316 µM, first compound 10 µM
[19] = second compound 1 µM, first compound 0.0316 µM
[20] = second compound 1 µM, first compound 0.1 µM
[21] = second compound 1 µM, first compound 0.316 µM
[22] = second compound 1 µM, first compound 1 µM
[23] = second compound 1 µM, first compound 3.16 µM
[24] = second compound 1 µM, first compound 10 µM
[25] = second compound 3.16 µM, first compound 0.0316 µM
[26] = second compound 3.16 µM, first compound 0.1 µM
[27] = second compound 3.16 µM, first compound 0.316 µM
[28] = second compound 3.16 µM, first compound 1 µM
[29] = second compound 3.16 µM, first compound 3.16 µM
[30] = second compound 3.16 µM, first compound 10 µM
[31] = second compound 10 µM, first compound 0.0316 µM
[32] = second compound 10 µM, first compound 0.1 µM
[33] = second compound 10 µM, first compound 0.316 µM
[34] = second compound 10 µM, first compound 1 µM
[35] = second compound 10 µM, first compound 3.16 µM
[36] = second compound 10 µM, first compound 10 µM
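Also: spheroids exposed to drugs for one week before readout.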
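For viability, T/C in this document: percent viability relative to DMSO vehicle control wells set as 100%.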

**Q.** Which results are given for `CCc1cc2c(N3CCc4c(cc(Cn5ccnc5)cc4-c4cn(C)nc4C(F)(F)F)C3=O)ccnc2c(OC)n1` + COC1C(OC(N)=O)C(O)C(Oc2ccc3c(O)c(NC(=O)c4ccc(O)c(CC=C(C)C)c4)c(=O)oc3c2C)OC1(C)C?
**A.** IC50 (second compound 0.0316 µM): 242 nM; IC50 (second compound 0.1 µM): 382 nM; IC50 (second compound 0.316 µM): 332 nM; IC50 (second compound 1 µM): 258 nM; IC50 (second compound 3.16 µM): 225 nM; IC50 (second compound 10 µM): 299 nM; viability, T/C [1]: 81.8%; viability, T/C [2]: 60.3%; viability, T/C [3]: 46.7%; viability, T/C [4]: 38.5%; viability, T/C [5]: 28%; viability, T/C [6]: 25.9%; viability, T/C [7]: 81.9%; viability, T/C [8]: 63.8%; viability, T/C [9]: 54.2%; viability, T/C [10]: 40.9%; viability, T/C [11]: 25.8%; viability, T/C [12]: 22.7%; viability, T/C [13]: 77.7%; viability, T/C [14]: 57.7%; viability, T/C [15]: 52.6%; viability, T/C [16]: 43%; viability, T/C [17]: 28.6%; viability, T/C [18]: 26.6%; viability, T/C [19]: 91.7%; viability, T/C [20]: 60.2%; viability, T/C [21]: 46.5%; viability, T/C [22]: 45%; viability, T/C [23]: 22.5%; viability, T/C [24]: 26.1%; viability, T/C [25]: 85.2%; viability, T/C [26]: 54.2%; viability, T/C [27]: 48.5%; viability, T/C [28]: 38.5%; viability, T/C [29]: 28.1%; viability, T/C [30]: 21.1%; viability, T/C [31]: 79.1%; viability, T/C [32]: 64.5%; viability, T/C [33]: 47%; viability, T/C [34]: 40.1%; viability, T/C [35]: 32%; viability, T/C [36]: 25.9%

**Q.** How did the IC50 (second compound 0.0316 µM) turn out when `CC1COCCN1c1cc(C2(O)CC3CCC(C2)O3)c2cnn(-c3ccn[nH]3)c2n1` (stereo unspecified) + Cc1cccc(N(C)C(=O)C2C(O)CCN2c2nc(C)cc(C(F)(F)F)c2C#N)c1 was run?
**A.** Its IC50 is 173 nM.

**Q.** What about the IC50 (second compound 0.1 µM) of the same molecule?
**A.** The IC50 was 220 nM.

**Q.** And the IC50 (second compound 0.316 µM)?
**A.** The IC50 was 194 nM.

**Q.** And the IC50 (second compound 1 µM)?
**A.** Its IC50 is 201 nM.

**Q.** And the IC50 (second compound 3.16 µM)?
**A.** The IC50 was 143 nM.

**Q.** What about the IC50 (second compound 10 µM) of the same molecule?
**A.** The IC50 was 198 nM.

**Q.** What about the viability, T/C [1] of the same molecule?
**A.** The viability, T/C was 102%.

**Q.** What about the viability, T/C [2] of the same molecule?
**A.** Its viability, T/C is 64.7%.

**Q.** And the viability, T/C [3]?
**A.** The viability, T/C was 34.5%.

**Q.** What about the viability, T/C [4] of the same molecule?
**A.** Its viability, T/C is 13.3%.

**Q.** What about the viability, T/C [5] of the same molecule?
**A.** The viability, T/C was 8.43%.

**Q.** What about the viability, T/C [6] of the same molecule?
**A.** Its viability, T/C is 2.27%.

**Q.** And the viability, T/C [7]?
**A.** The viability, T/C was 100%.

**Q.** What about the viability, T/C [8] of the same molecule?
**A.** The viability, T/C was 79.8%.

**Q.** And the viability, T/C [9]?
**A.** The viability, T/C was 35.8%.

**Q.** And the viability, T/C [10]?
**A.** The viability, T/C was 12.2%.

**Q.** And the viability, T/C [11]?
**A.** Its viability, T/C is 6.79%.

**Q.** And the viability, T/C [12]?
**A.** Its viability, T/C is 1.49%.

**Q.** And the viability, T/C [13]?
**A.** Its viability, T/C is 88.7%.

**Q.** What about the viability, T/C [14] of the same molecule?
**A.** Its viability, T/C is 67.5%.

**Q.** And the viability, T/C [15]?
**A.** The viability, T/C was 37.9%.

**Q.** What about the viability, T/C [16] of the same molecule?
**A.** Its viability, T/C is 11.6%.

**Q.** And the viability, T/C [17]?
**A.** The viability, T/C was 9.91%.

**Q.** What about the viability, T/C [18] of the same molecule?
**A.** The viability, T/C was 1.44%.

**Q.** What about the viability, T/C [19] of the same molecule?
**A.** Its viability, T/C is 85.7%.

**Q.** And the viability, T/C [20]?
**A.** The viability, T/C was 71%.

**Q.** And the viability, T/C [21]?
**A.** Its viability, T/C is 35.8%.

**Q.** And the viability, T/C [22]?
**A.** The viability, T/C was 14%.

**Q.** And the viability, T/C [23]?
**A.** The viability, T/C was 7.71%.

**Q.** And the viability, T/C [24]?
**A.** Its viability, T/C is 1.6%.

**Q.** And the viability, T/C [25]?
**A.** The viability, T/C was 85.9%.

**Q.** What about the viability, T/C [26] of the same molecule?
**A.** Its viability, T/C is 61%.

**Q.** What about the viability, T/C [27] of the same molecule?
**A.** Its viability, T/C is 26.1%.

**Q.** And the viability, T/C [28]?
**A.** The viability, T/C was 13.9%.

**Q.** What about the viability, T/C [29] of the same molecule?
**A.** Its viability, T/C is 7.14%.

**Q.** What about the viability, T/C [30] of the same molecule?
**A.** Its viability, T/C is 1.53%.

**Q.** What about the viability, T/C [31] of the same molecule?
**A.** The viability, T/C was 97.7%.

**Q.** And the viability, T/C [32]?
**A.** Its viability, T/C is 72.9%.

**Q.** And the viability, T/C [33]?
**A.** Its viability, T/C is 33.5%.

**Q.** And the viability, T/C [34]?
**A.** Its viability, T/C is 13.2%.

**Q.** And the viability, T/C [35]?
**A.** The viability, T/C was 6.57%.

**Q.** And the viability, T/C [36]?
**A.** The viability, T/C was 1.3%.

**Q.** What does the source list for `COc1cccc(OCCCN)c1-c1cc(Nc2cnc(C#N)cn2)n[nH]1` + COC1C(OC(N)=O)C(O)C(Oc2ccc3c(O)c(NC(=O)c4ccc(O)c(CC=C(C)C)c4)c(=O)oc3c2C)OC1(C)C?
**A.** IC50 (second compound 0.0316 µM): 146 nM; IC50 (second compound 0.1 µM): 122 nM; IC50 (second compound 0.316 µM): 113 nM; IC50 (second compound 1 µM): 107 nM; IC50 (second compound 3.16 µM): 70.5 nM; IC50 (second compound 10 µM): 77.7 nM; viability, T/C (second compound 0.0316 µM, first compound 0.00316 µM): 104%; viability, T/C (second compound 0.0316 µM, first compound 0.01 µM): 96.4%; viability, T/C [1]: 65.9%; viability, T/C [2]: 61.8%; viability, T/C [3]: 36%; viability, T/C [4]: 24.8%; viability, T/C (second compound 0.1 µM, first compound 0.00316 µM): 111%; viability, T/C (second compound 0.1 µM, first compound 0.01 µM): 79%; viability, T/C [7]: 68.3%; viability, T/C [8]: 56.6%; viability, T/C [9]: 39%; viability, T/C [10]: 31.5%; viability, T/C (second compound 0.316 µM, first compound 0.00316 µM): 94.2%; viability, T/C (second compound 0.316 µM, first compound 0.01 µM): 74.5%; viability, T/C [13]: 62.7%; viability, T/C [14]: 51.4%; viability, T/C [15]: 42.2%; viability, T/C [16]: 35.2%; viability, T/C (second compound 1 µM, first compound 0.00316 µM): 87.7%; viability, T/C (second compound 1 µM, first compound 0.01 µM): 77.9%; viability, T/C [19]: 47.3%; viability, T/C [20]: 56.4%; viability, T/C [21]: 49.1%; viability, T/C [22]: 29.6%; viability, T/C (second compound 3.16 µM, first compound 0.00316 µM): 92.6%; viability, T/C (second compound 3.16 µM, first compound 0.01 µM): 89.3%; viability, T/C [25]: 60.4%; viability, T/C [26]: 46.2%; viability, T/C [27]: 46.5%; viability, T/C [28]: 31.7%; viability, T/C (second compound 10 µM, first compound 0.00316 µM): 81.2%; viability, T/C (second compound 10 µM, first compound 0.01 µM): 80.8%; viability, T/C [31]: 65%; viability, T/C [32]: 44.5%; viability, T/C [33]: 36.9%; viability, T/C [34]: 27.9%
